Measured values as given in patent publication US20180036314A1, “METHODS AND COMPOSITIONS FOR TREATING PERIPHERAL VASCULAR DISEASE” (Exodos Life Sciences Limited Partnership, priority 2009, published 2018).

Columns and labels:
[1] = tested on: hands of normal human volunteers; experiment: Skin temperature recovery of the hand after cold water immersion (infrared camera); type: in vivo; conditions: topical, acclimation at 25° C.
Description: The effects of L-arginine and sidelnafil citrate in the regulation of human blood flow was determined by measuring the rate of skin temperature recovery in the hands of normal human volunteers following a period of cold water immersion. The measurements were performed at room temperature 25° C., for a period of 30 minutes after acclimatization. L-arginine monohydrate and sildenafile citrate were prepared in commercially available Veecogel Cream base formulation containing Krisgel 100™, Coconut oil, Capryloic Acid, Triglicerides, Squalane, Boric Acid, Polysorbate 80, Sorbitan Monooleate 80, Simethicone, Butylated hydroxytoluene. Sildenafil citrate 1% was dissolved in propylene glycol 2% and combine with base with constant mixing. L-arginine monohydrate 10% and 1% were dissolve in 2% propylene glycol and combine with the Veecogel described above.
Skin temperature was measured with an infrared camera FLIR T300 (FLIR Systems, Inc., Boston, Mass., USA). Changes in skin temperature were determined after cooling of hand for 2 minutes in ice water by analyzing individual thermal images with FLIR Quick Report software. The effects of test drugs were determined following application of substance to the cooled hand. Thermal images of a patient receiving the control treatment and of a patient receiving the combination treatment were taken at 0, 5, and 15 minutes after treatment, and are shown in FIGS. 1A and 1B, respectively.

pig skin = experiment: Local cutaneous blood flow in pigs after topical application (laser Doppler); type: in vivo; conditions: for Local cutaneous blood flow, FLOW (MV), 10 min. after treatment / Local cutaneous blood flow, FLOW (MV), 20 min. after treatment / Local cutaneous blood flow, FLOW (MV), 30 min. after treatment / Local cutaneous blood flow, FLOW (MV), 60 min. after treatment / Local cutaneous blood flow, FLOW (MV), 120 min after treatment / Local cutaneous blood flow, FLOW (MV), 180 min. after treatment: topical
Description: A stable depth of sedation was maintained with continuous intravenous methohexital, titrated to a minimal lid reflex and a regular respiratory rate. Throughout the experiment, the animals spontaneously breathed through a “snout-cone” connected to a standard anesthesia machine delivering 100% oxygen. The dorsal surface of the animal was cleaned with tepid water. Ten sites (2×2 cm each) were defined on the dorsal surface of the animal with permanent marker. […] MAP was recorded at the start and end of each Doppler scan. A dose volume of 0.1 mL of vehicle, control, or test article was applied to each site. L-arginine monohydrate and sildenafil citrate were prepared in commercially available Veecogel Cream base formulation (available from PCCA, 9901 South […], Houston, Tex., USA) containing […], Coconut oil, Capryloic Acid, […], Squalane, Boric Acid, Polysorbate 80, Sorbitan Monooleate 80, Simethicone, Butylated hydroxytoluene. Sildenafil citrate 1% was dissolved in propylene glycol 2% and combine with base with constant mixing. L-arginine monohydrate 10% and 1% were dissolved in 2% propylene glycol and combined with the Veecogel described above. No two adjacent sites were administered the same concentration of any control or test article and administration was temporally spaced to allow at least 2 minutes between dosing each site. […] Applications were made in the same order and over the same time span as the baseline blood flow measurements. […] Blood flow at the untreated, control site was measured immediately prior to and immediately after the measurements at the treated sites. These two measurements were averaged to obtain the control blood flow for each interval. Serum levels of local drugs were not measured. Regional differences in blood flow were accounted for by normalizing the measurements of flow made after injection of a test solution to the baseline flow at the site prior to application. Changes in blood flow are expressed as a percent change from control blood flow. Variations in skin blood flow over the course of the experiment were accounted for by normalizing the changes in blood flow at a given site to the changes in blood flow at a control site. Thus, the change in cutaneous blood flow at a treatment site can be determined by the formula: [formula] where Sx is the blood flow at an injected site X min after application, So is the baseline flow at that site prior to application, Cx is the flow at the control site X min after the application, and Co is the blood flow at the control site at the same time that the baseline flow measurements were made.

[2] = tested on: patients with scleroderma and lupus; conditions: in vivo; cited from earlier work
[3] = tested on: patient suffering from Raynaud's phenomenon secondary to chemotherapy; conditions: single patient; equipotent doses; cited from earlier work
[4] = tested on: vasospastic attacks and peripheral blood flow; conditions: oral 20 mg 2 or 3 times per week during 4 weeks; compared to pentoxifylline 600 mg b.i.d.; cited from earlier work
[5] = tested on: patients with Raynaud's phenomenon; conditions: cited from earlier work
[6] = tested on: patients with secondary Raynaud's phenomenon; conditions: oral 50 mg twice daily for 4 weeks, cited from earlier work
[7] = in vivo; cited from earlier work
[8] = tested on: primary Raynaud's symptoms; conditions: in vivo; cited from earlier work
[9] = tested on: patients with Raynaud's phenomenon secondary to scleroderma; conditions: in vivo; cited from earlier work

## N=C(N)NCCC[C@H](N)C(=O)O [Arginine, L-arginine]
[1]; dose 10% W/v
  Change in skin temperature from baseline, 1 min.: 2.5 °C
  Change in skin temperature from baseline, 2 min.: 4 °C
  Change in skin temperature from baseline, 5 min.: 5 °C
  Change in skin temperature from baseline, 10 min.: 9.5 °C
  Change in skin temperature from baseline, 15 min.: 11.5 °C
Pig skin; topical application
  Effect on dermal blood flow: increased dermal blood flow in a dose and time dependent manner
Pig skin; dose 1%
  Local cutaneous blood flow, FLOW (MV), 10 min. after treatment: 0.41 MV
  Local cutaneous blood flow, FLOW (MV), 20 min. after treatment: 12.47 MV
  Local cutaneous blood flow, FLOW (MV), 30 min. after treatment: 5.55 MV
  Local cutaneous blood flow, FLOW (MV), 60 min. after treatment: 2.71 MV
  Local cutaneous blood flow, FLOW (MV), 120 min after treatment: 7.91 MV
  Local cutaneous blood flow, FLOW (MV), 180 min. after treatment: 10.26 MV
Pig skin; dose 10%
  Local cutaneous blood flow, FLOW (MV), 10 min. after treatment: 19.82 MV
  Local cutaneous blood flow, FLOW (MV), 20 min. after treatment: 21.88 MV
  Local cutaneous blood flow, FLOW (MV), 30 min. after treatment: 22.07 MV
  Local cutaneous blood flow, FLOW (MV), 60 min. after treatment: 38.45 MV
  Local cutaneous blood flow, FLOW (MV), 120 min after treatment: 40.21 MV
  Local cutaneous blood flow, FLOW (MV), 180 min. after treatment: 38.72 MV

## CN1CC(=O)N2[C@H](c3ccc4c(c3)OCO4)c3[nH]c4ccccc4c3C[C@@H]2C1=O [tadalafil, (6R,12aR)-2,3,6,7,12,12a-hexahydro-2-methyl-6-(3,4-methylenedioxyphenyl)-pyrazino[2′,1′:6,1]pyrido[3,4-b]indole-1,4-dione]
[2]
  Raynaud's symptoms: reduced Raynaud's symptoms
[3]
  Response of Raynaud's symptoms and capillary blood flow: improved Raynaud's symptoms and increased capillary blood flow
[4]
  Peripheral blood flow at the end of the treatment period: increased peripheral blood flow
  Vasospastic attack frequency and duration: significant reduction in vasospastic attack frequency and duration

## Cc1c(C)c2c(c(C)c1O)CC[C@@](C)(CCC[C@H](C)CCC[C@H](C)CCCC(C)C)O2 [α-tocopherol]
[5]; comparator arm
  Effects on blood flow parameters: no effects on blood flow parameters

## CCCc1nn(C)c2c(=O)[nH]c(-c3cc(S(=O)(=O)N4CCN(C)CC4)ccc3OCC)nc12 [Sildenafil, 5-[2-ethoxy-5-(4-methyl-1-piperazinylsulphonyl)phenyl]-1-methyl-3-n-propyl-1,6-dihydro-7H-pyrazolo[4,3-d]pyrimidin-7-one]
[5]; oral, after treatment
  Increase in forearm blood flow: 75%
[6]
  Digital ulcers in patients who had digital ulcers at baseline: ulcer healing was observed
  Increase in mean capillary flow velocity: more than 4 fold
[6]; compared to placebo
  Frequency and duration of Raynaud's attacks: reduction in the frequency and duration of Raynaud's attacks compared to placebo
[1]; dose 1% W/v
  Change in skin temperature from baseline, 1 min.: 1 °C
  Change in skin temperature from baseline, 2 min.: 4 °C
  Change in skin temperature from baseline, 5 min.: 6.5 °C
  Change in skin temperature from baseline, 10 min.: 8.5 °C
  Change in skin temperature from baseline, 15 min.: 12.5 °C
[7]
  Half-life: 3.8 h
[8]
  Primary Raynaud's symptoms: failed to improve primary Raynaud's symptoms
[3]
  Response of Raynaud's symptoms and capillary blood flow: did not respond
[9]
  Patients with a reduction in pain and frequency of Raynaud's phenomenon attacks: 80%
  Patients with digital ulcer healing (of those with digital ulcers at baseline): 75%
Pig skin; topical concentration of 1% in Veecogel cream base
  Effect on blood flow: increased blood flow in the areas of application
Pig skin; dose 1%
  Local cutaneous blood flow, FLOW (MV), 10 min. after treatment: −10.31 MV
  Local cutaneous blood flow, FLOW (MV), 20 min. after treatment: −3.51 MV
  Local cutaneous blood flow, FLOW (MV), 30 min. after treatment: −1.57 MV
  Local cutaneous blood flow, FLOW (MV), 60 min. after treatment: 1.58 MV
  Local cutaneous blood flow, FLOW (MV), 120 min after treatment: 3.15 MV
  Local cutaneous blood flow, FLOW (MV), 180 min. after treatment: 15.73 MV
